From patent US20250115654A1, “PHARMACEUTICAL COMPOSITION OF GLP-1 RECEPTOR AND GIP RECEPTOR DUAL AGONIST, AND USE THEREOF” (FUJIAN SHENGDI PHARMACEUTICAL CO., LTD., priority 2021, published 2025)
Numbered stars: 1 amine (or outer) side, 2 acyl side, 3 side chain; on linkers, the order of the positions; unused ones are H or OH. Square brackets hold non-standard residues; d marks the D form. Side chains are listed from the residue outwards. Peptide text beside a SMILES is read from it. * marks the point of attachment. C20 diacid = O=C(O)CCCCCCCCCCCCCCCCCCC(=O)*; γGlu = O=C(O)[C@H](CCC(=O)[*:2])N[*:1]; AEEA = NCCOCCOCC(=O)O; Aib = CC(C)(N)C(=O)O

Tests used:
human GIPR = target: T1, human GIPR (Homo sapiens, UniProt P48546); experiment: Agonist activity against GIPR, cAMP HTRF in CHO-K1 cells transiently transfected with hGIP receptor; assay type: cell-based; conditions: Table 6 run; read-out: Activity against human GIPR (EC50 nM)
T1 construct: expressed in transfected cells; host or cells: wild-type CHO-K1, transient transfection with hGIP receptor plasmid (Fugene HD)
T1 sequence (P48546 22-466): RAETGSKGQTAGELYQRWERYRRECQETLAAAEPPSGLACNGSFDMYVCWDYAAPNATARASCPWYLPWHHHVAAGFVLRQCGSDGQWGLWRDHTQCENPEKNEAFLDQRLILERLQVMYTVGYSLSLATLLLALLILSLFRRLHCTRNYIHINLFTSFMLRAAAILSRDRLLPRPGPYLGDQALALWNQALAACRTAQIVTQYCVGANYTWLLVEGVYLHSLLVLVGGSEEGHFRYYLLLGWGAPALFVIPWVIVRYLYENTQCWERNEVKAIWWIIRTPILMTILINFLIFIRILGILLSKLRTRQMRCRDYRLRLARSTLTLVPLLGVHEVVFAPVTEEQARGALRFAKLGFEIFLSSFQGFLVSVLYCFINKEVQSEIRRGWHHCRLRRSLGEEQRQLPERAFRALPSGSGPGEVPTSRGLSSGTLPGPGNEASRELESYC
Description: Wild-type CHO-K1 cells were collected, and the cell suspension was adjusted to an appropriate density, seeded in a 6-well plate at 2 mL/well, and placed in an incubator at 37° C. with 5% CO2 for adherence culture overnight.

human GLP-1R = human GLP-1R (Homo sapiens, UniProt P43220); experiment: Agonist activity against GLP-1R, cAMP HTRF in CHO-K1/GLP-1R/CRE-luc stable cells
human GLP-1R, sequence (P43220 24-463): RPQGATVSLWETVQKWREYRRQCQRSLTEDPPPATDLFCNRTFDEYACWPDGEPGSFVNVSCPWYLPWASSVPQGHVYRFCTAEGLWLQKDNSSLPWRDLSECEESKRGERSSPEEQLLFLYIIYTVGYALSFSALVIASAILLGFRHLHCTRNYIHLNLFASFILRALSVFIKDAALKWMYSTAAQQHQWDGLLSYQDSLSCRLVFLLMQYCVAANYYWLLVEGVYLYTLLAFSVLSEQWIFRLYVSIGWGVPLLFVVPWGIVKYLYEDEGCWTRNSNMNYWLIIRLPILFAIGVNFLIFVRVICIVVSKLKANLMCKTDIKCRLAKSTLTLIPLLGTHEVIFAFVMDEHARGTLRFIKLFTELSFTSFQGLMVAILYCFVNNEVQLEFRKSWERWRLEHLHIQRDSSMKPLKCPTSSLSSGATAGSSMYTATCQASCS

`CC[C@H](C)[C@H](NC(=O)[C@H](CCCCN)NC(=O)[C@H](CCC(=O)O)NC(=O)[C@H](CCCCNC(=O)COCCOCCNC(=O)COCCOCCNC(=O)CC[C@H](NC(=O)CCCCCCCCCCCCCCCCCCC(=O)O)C(=O)O)NC(=O)[C@H](Cc1ccc(O)cc1)NC(=O)[C@@H](NC(=O)[C@H](CO)NC(=O)[C@H](Cc1ccc(O)cc1)NC(=O)[C@H](CC(=O)O)NC(=O)[C@H](CO)NC(=O)[C@@H](NC(=O)[C@H](Cc1ccccc1)NC(=O)[C@@H](NC(=O)CNC(=O)[C@H](CCC(=O)O)NC(=O)C(C)(C)NC(=O)[C@@H](N)Cc1ccc(O)cc1)[C@@H](C)O)[C@@H](C)O)[C@@H](C)CC)C(=O)N[C@@H](C)C(=O)N[C@@H](C)C(=O)N[C@@H](CCC(N)=O)C(=O)N[C@@H](CCC(=O)O)C(=O)N[C@@H](Cc1ccccc1)C(=O)N[C@H](C(=O)N[C@@H](CC(N)=O)C(=O)N[C@@H](Cc1c[nH]c2ccccc12)C(=O)N[C@@H](CC(C)C)C(=O)N[C@H](C(=O)N[C@@H](C)C(=O)NCC(=O)NCC(=O)N1CCC[C@H]1C(=O)N[C@@H](CO)C(=O)N[C@@H](CO)C(=O)NCC(=O)N[C@@H](C)C(=O)N1CCC[C@H]1C(=O)N1CCC[C@H]1C(=O)N1CCC[C@H]1C(=O)N[C@@H](CO)C(N)=O)[C@@H](C)CC)[C@@H](C)CC` [Compound 14] (H-Y[Aib]EGTFTSDYSIYK([AEEA-AEEA-γGlu-C20 diacid])EKIAAQEFINWLIAGGPSSGAPPPS-NH2) gave an EC50 (human GIPR) of 0.13 nM and an EC50 (human GLP-1R) of 0.013 nM.
